The values that follow come from US7169781B2, “Imidazole derivatives and their use as pharmaceutical agents” (Hoffmann-La Roche Inc., priority 2003, dated 2007).

In one assay the target is T1, Src (p60^c-src) (Homo sapiens, UniProt P12931).
T1 construct: purchased Upstate (UBI)
The assay is described as follows: SRC-Inhibitor-Assay (time-resolved fluorescence kinase assay). The format is biochemical. Conditions: ATP 5 μM; enzyme pre-incubated with inhibitor 15 min at 15° C. How it is done: SRC-Inhibitor-Assay Parameters:
Assay buffer: 4 mM MgCl2 • 2 mM TCEP • 50 mM HEPES • 0.1% Tween 20 • pH 7.3
Inhibitor: max. 25 μM • min. 0.42 nM Material:
Eu-labelled phosphotyrosine antibody:—for Lck Cisbio Mab PT66-K, • for Src EG&G Wallac PT66 Eu-W1024 (all commercially available).
Peptides: Ro: NH2-A-E-E-E-I-Y-G-E-F-E-A-K-K-K-K-CONH2 (SEQ ID NO: 1), and Ja133-Ro: Ja133-G-Aminocaprylic acid-A-E-E-E-I-Y-G-E-F-E-A-K-K-K-K-CONH2 (SEQ ID NO: 2) wherein Ja133 is LightCycler-Red 640-N-hydroxy succinimide ester; whereby both peptides were synthesized by an optimized solid phase peptide synthesis protocol (Merrifield, Fed. Proc. Fed. Amer. Soc. Exp. Biol. 21 (1962) 412) on a Zinsser SMP350 peptide synthesizer. Shortly, the peptide was assembled on 160 mg (22.8 μmol scale) of a Rink-Linker modified polystyrene solid phase by repeatedly conjugating an twenty fold excess of aminoacids each protected by temporary piperidine labile Fmoc- and permanent acid labile tert-Bu-, BOC- and Otert-Bu-groups depending on the side chain function. The substrate sequence AEEEIYGEFEAKKKK (SEQ ID NO: 1) was N-terminal additionally mounted with the spacer amino acids Aminocaprylic acid and Glycin. After cleavage of the N-terminal temporary protecting group the still attached and protected peptide was labeled with a 1.5 fold amount of LightCycler-Red 640-N-hydroxy succinimide ester (purchased by Roche Diagnostics GmbH) and triethylamine. After 3 hrs. the resin was washed with Dimethylformamide and Isopropanol until the eluates of the blue resin got colourless. […] The substrate was finally isolated by a preparative reverse phase HPLC purification. The purification yielded 12.2 mg RP-HPLC single peak pure blue material (lyophilisate). The identity was proven by MALDI mass spectroscopy [2720.0].
Enzymes: Upstate Lck (p56^lck, active), Upstate Src (p60^c-src, partially purified) were purchased from UBI.
Time-resolved Fluorescence Assay: Reader: Perkin Elmer, Wallac Viktor 1420-040 multilabel counter; Liquid handling system: Beckman Coulter, Biomek 2000.
ATP, Tween 20, HEPES were purchased from Roche Molecular Biochemicals, MgCl2 and MnCl2 were purchased from Merck Eurolab, TCEP was purchased from Pierce, 384 Well low volume fluorescence plates was purchased from Falcon.
At first the enzyme is pre-incubated for 15 min. at 15° C. in aqueous solution with corresponding amounts of inhibitors according to this invention. Then the phosphorylation reaction is started by adding a reaction mixture, containing ATP, Peptide and PT66, and subsequent shaking. The proceeding of this reaction is immediately monitored using time resolved fluorescence spectroscopy in a suitable well plate reader.
The IC50-values can be obtained from the reaction rates by using a non-linear curve fit (Excelfit).

The target of the next assay is T2, c-met (Homo sapiens, UniProt P08581).
T2 construct: Cell lysate of human colon adenocarcinoma HT29 known for its high content of c-met; endogenous in cells; host or cells: HT29 (ATCC HTB-38), human colon adenocarcinoma
T2 sequence (P08581 25-1390): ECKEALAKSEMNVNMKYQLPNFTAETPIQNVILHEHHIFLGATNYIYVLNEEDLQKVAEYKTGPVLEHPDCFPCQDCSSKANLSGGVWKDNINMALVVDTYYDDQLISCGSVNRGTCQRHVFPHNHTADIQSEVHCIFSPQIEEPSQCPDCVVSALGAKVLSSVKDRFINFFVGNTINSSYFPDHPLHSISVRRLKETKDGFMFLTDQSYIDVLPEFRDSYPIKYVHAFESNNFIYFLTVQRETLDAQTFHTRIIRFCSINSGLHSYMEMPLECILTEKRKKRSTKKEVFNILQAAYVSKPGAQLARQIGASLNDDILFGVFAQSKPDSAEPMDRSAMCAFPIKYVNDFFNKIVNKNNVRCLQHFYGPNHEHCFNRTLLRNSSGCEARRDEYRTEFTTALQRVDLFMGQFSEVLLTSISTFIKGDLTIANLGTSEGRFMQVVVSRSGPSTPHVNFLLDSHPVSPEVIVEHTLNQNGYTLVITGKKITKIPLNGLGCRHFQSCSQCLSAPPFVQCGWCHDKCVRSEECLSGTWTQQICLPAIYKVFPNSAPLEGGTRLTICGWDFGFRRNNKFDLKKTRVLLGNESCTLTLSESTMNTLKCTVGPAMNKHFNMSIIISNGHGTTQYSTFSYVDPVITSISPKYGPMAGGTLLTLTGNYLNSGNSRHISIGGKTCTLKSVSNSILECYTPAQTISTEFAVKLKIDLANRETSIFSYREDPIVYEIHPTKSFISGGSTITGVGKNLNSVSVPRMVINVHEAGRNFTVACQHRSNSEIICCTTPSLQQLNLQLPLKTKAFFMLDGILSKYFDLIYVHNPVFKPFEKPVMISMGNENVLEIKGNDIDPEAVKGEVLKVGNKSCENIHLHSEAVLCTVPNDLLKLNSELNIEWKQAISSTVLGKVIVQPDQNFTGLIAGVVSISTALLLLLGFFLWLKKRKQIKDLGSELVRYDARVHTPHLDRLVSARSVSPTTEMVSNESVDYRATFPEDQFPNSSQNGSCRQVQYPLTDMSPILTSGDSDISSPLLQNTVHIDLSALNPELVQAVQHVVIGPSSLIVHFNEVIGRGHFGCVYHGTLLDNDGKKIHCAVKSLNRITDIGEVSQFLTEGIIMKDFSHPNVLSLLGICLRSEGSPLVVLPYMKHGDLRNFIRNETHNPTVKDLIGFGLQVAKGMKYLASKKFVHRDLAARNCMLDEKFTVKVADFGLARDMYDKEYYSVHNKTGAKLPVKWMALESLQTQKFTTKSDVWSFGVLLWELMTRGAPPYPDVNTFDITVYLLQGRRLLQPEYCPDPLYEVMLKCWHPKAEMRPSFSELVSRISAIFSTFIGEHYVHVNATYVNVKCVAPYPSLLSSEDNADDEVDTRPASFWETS
Description: C-met-Inhibitor-Assay (ELISA type assay measuring phosphorylation of c-met from HT29 cell lysate). The format is biochemical. The settings on record: ATP final conc. 40 μM, 60 min at room temperature. From the text:
C-met-Inhibitor-Assay: Assay Principle
C-met is a typical tyrosine kinase which is involved in metastasis, proliferation/apoptosis and angiogenesis of tumors. The assay is an ELISA type assay measuring the phosphorylation of c-met using a phospho-tyrosine specific antibody.
Cell lysate of human colon adenocarcinoma HT29 known for its high content of c-met is bound to the wells of a microtiterplate (MTP) via an anti-hHGF receptor antibody (anti-hHGFR). ATP-phosphorylation of c-met is detected in presence or absence of the test compounds by using a phospho-tyrosine mouse IgG and a POD labeled goat anti-mouse IgG detection system. Using the classical POD substrate TMB, an absorption at 450 nm/620 nm is used to calculate enzymatic activity.
Plates: 96-well polystyrene plates (NUNC) streptavidin-coated microtiter plates Cell line/Lysate: HT29 (ATCC HTB-38), human colon adenocarcinoma (confluence: 2.5×10^5 cells/cm^2) are washed with PBS and incubated with Lysis buffer for 10 min on ice. Supernatent is collected and diluted with TBS. Lysate is shockfrozen in liquid nitrogen and stored at −80° C.)
Reagents (all working solutions are kept at 4° C., unless stated otherwise): • anti-hHGFR detection stock solution: 50 μg/ml (R&D Systems, Cat.No. BAF 358) antibody final conc.: 1 μg/ml • p-Tyr (PY99) mouse stock solution: 200 μg/ml (Santa Cruz Biotechnology, monoclonal IgG2b Cat.No. SC-7020) final conc.: 0.2 μg/ml • goat-anti-mouse IgG: 2 ml (BIO RAD, Cat.No. 170-6516) • (H+L)-HRP Conjugate; final conc.: 1:2000 • Blocking Reagent: Roche Diagnostics GmbH, Cat.No.1112589 for ELISA diluted 1:10 in TBS • ATP: Adenosine-5′-triphosphate, stock solution 10 mM, stock solution 10 mM (Roche • Diagnostics GmbH, Cat.No. 127531) final conc.: 40 μM • TBS: Tris-buffered saline, 50 mM TRIS pH 7.5 (Roche Diagnostics GmbH, Cat.No. 708976), 150 mM NaCl (SIGMA, Cat.No. S-3014) • Wash buffer TBS-T: Tris-buffered saline, 50 mM TRIS pH 7.5 150 mM NaCl, containing 0.5% Tween20 • Kinase buffer: Tris-buffered saline, 50 mM TRIS pH 7.5, 100 mM NaCl, 60 mM MgCl2 (SIGMA Chemical Company, Cat.No. M-1028) • Lysis buffer: 50 mM TRIS pH 7.5 containing 1% Nonidet P40 (Roche Diagnostics GmbH, Cat.No.1754599) 0.5% Deoxycholic acid (SIGMA Chemical Company, Cat.No. D-6750) • final conc.: 1 mM 1 mM PMSF stock solution 70 mM (Roche Diagnostics GmbH, • Cat.No.837091 40 μl/ml Complete (Roche Diagnostics GmbH, Cat.No. 1836145) Final conc.: 40 μl/ml • TMB: Tetramethylbenzidine (Intergen Company, Cat.No. 91000) • Samples: 10 mM in DMSO (stored at −20° C.), thawed at room temperature
Procedure: • Add 50 μl of anti-hHGFR detection antibody in blocking reagent to assay plate (final conc. 1 μg/ml), incubate assay plate for 60 min at room temperature on an MTP shaker. • Remove anti-hHGFR detection antibody solution from assay plate. • Add 250 μl blocking reagent per well to assay plate, incubate assay plate for 20 h, at 4° C. • Remove blocking reagent from assay plate. • Add 50 μl of HT29 lysate, incubate assay plate for 180 min, at 4° C. on an MTP shaker. • Wash assay plate with 2×200 μl TBS buffer per well. • Add 40 μl of 0.2% DMSO in kinase buffer to assay plate. • Add 40 μl sample solution (dissolved in kinase buffer—final conc. 22.5 μM). • Dissolve samples (1:3 ratio) in MTP. • Add 10 μl ATP dissolved in kinase buffer (200 μM) to samples (final conc. 40 μM ATP). Positive control: add 40 μl kinase buffer plus 10 μl 200 μM ATP. Negative control: add 40 μl kinase buffer plus 10 μl kinase buffer without ATP. […]

T1 sequence (P12931 whole entry): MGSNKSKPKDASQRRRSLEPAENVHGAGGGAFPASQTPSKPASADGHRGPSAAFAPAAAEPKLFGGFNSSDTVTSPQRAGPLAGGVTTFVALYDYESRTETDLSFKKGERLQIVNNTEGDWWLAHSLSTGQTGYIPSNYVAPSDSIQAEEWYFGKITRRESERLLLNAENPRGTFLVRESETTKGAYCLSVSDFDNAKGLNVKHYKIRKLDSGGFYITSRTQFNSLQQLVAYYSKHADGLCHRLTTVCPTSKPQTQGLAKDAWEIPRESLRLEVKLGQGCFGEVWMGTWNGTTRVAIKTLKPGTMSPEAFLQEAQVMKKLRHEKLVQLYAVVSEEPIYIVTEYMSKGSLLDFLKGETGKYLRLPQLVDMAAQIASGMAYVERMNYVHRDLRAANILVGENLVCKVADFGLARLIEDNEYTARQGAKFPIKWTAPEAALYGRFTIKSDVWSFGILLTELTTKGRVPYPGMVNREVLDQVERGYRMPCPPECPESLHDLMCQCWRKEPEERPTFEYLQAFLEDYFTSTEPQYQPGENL

One may read the IC50 as the concentration needed to halve the response being measured. A lower IC50 goes with inhibition by little substance. For the compound `CCN(CC)CCOc1ccc(Nc2nccc(-c3[nH]c(-c4c(Cl)cccc4Cl)nc3-c3cccc(Br)c3)n2)cc1` [Example H1.1, 2-(2,6-dichlorophenyl)-4-(3-bromophenyl)-5-(2-[4-(2-diethylamino-ethoxy)phenylamino]pyrimidin-4-yl)-N—H-imidazole], the IC50 worked out at 0.0067 µM against Src (p60^c-src) and 0.005 µM against c-met.

Turning to `CN(C)c1ccc(Nc2nccc(-c3[nH]c(-c4c(Cl)cccc4Cl)nc3-c3cccc(Cl)c3)n2)cc1` [Example H2.1.3, 2-(2,6-dichlorophenyl)-4-(3-chlorophenyl)-5-(2-[4-dimethylaminophenyl-amino]pyrimidin-4-yl)-N—H-imidazole], the IC50 was determined as 0.031 µM at Src (p60^c-src) and 0.167 µM against c-met. The corresponding values for `Clc1cccc(-c2nc(-c3c(Cl)cccc3Cl)[nH]c2-c2ccnc(Nc3ccc(N4CCOCC4)cc3)n2)c1` [Example H2.1.4, 2-(2,6-dichlorophenyl)-4-(3-chlorophenyl)-5-(2-[4-morpholinophenyl-amino]pyrimidin-4-yl)-N—H-imidazole] are 0.0233 µM and 0.084 µM.

Take `CCN(CC)CCOc1ccc(Nc2nccc(-c3nc(-c4c(Cl)cc(CO)cc4Cl)[nH]c3-c3cccc(Cl)c3)n2)cc1` [Example H2.2.1, 2-(2,6-dichloro-4-hydroxymethylphenyl)-4-(3-chlorophenyl)-5-(2-[4-(2-diethylaminoethoxy)-phenylamino]pyrimidin-4-yl)-N—H-imidazole]: the IC50 was determined as 0.0005 µM on Src (p60^c-src) and 0.004 µM against c-met. In turn, `CCN(CC)CCOc1ccc(Nc2nccc(-c3[nH]c(-c4c(Cl)cc(OCCO)cc4Cl)nc3-c3cccc(Cl)c3)n2)cc1` [Example H2.3.1, 2-(2,6-dichloro-4-[2-hydroxyethoxy]phenyl)-4-(3-chlorophenyl)-5-(2-[4-(2-diethylaminoethoxy)-phenylamino]pyrimidin-4-yl)-N—H-imidazole] registered a concentration for half-maximal inhibition (IC50) on Src (p60^c-src) of 0.0016 µM. Same read-out and setting: under `C[S+]([O-])c1ccc(Nc2nccc(-c3[nH]c(-c4c(Cl)cc(OCCO)cc4Cl)nc3-c3cccc(Cl)c3)n2)cc1` (stereo not drawn) [Example H2.3.2, 2-(2,6-dichloro-4-[2-hydroxyethoxy]phenyl)-4-(3-chlorophenyl)-5-(2-[4-methylsufinyl-phenylamino]pyrimidin-4-yl)-N—H-imidazole] stands 0.331 µM; under `O=S(=O)(NCCO)c1ccc(Nc2nccc(-c3[nH]c(-c4c(Cl)cc(OCCO)cc4Cl)nc3-c3cccc(Cl)c3)n2)cc1` [Example H2.3.3, 2-(2,6-dichloro-4-[2-hydroxyethoxy]phenyl)-4-(3-chlorophenyl)-5-(2-[4-(N-(2-hydroxyethyl)-ulfamoyl)phenylamino]pyrimidin-4-yl)-N—H-imidazole], 0.0067 µM.

`CCN(CC)CCOc1ccc(Nc2nccc(-c3[nH]c(-c4c(Cl)cccc4Cl)nc3-c3ccc(Cl)cc3)n2)cc1` [Example H3.1.1, 2-(2,6-dichlorophenyl)-4-(4-chlorophenyl)-5-(2-[4-(2-diethylaminoethoxy)-phenylamino]pyrimidin-4-yl)-N—H-imidazole]: the figures for the IC50 on Src (p60^c-src) and on c-met were 0.0244 µM and 0.609 µM, respectively. `C#Cc1cccc(-c2nc(-c3c(Cl)cccc3Cl)[nH]c2-c2ccnc(Nc3ccc(OCCO)cc3)n2)c1` [Example H4.1.2, 2-(2,6-dichlorophenyl)-4-(3-ethynylphenyl)-5-(2-[4-(2-hydroxyethoxy)-phenylamino]pyrimidin-4-yl)-N—H-imidazole]: the values for the IC50 against Src (p60^c-src) and on c-met were 0.0333 µM and 0.09 µM, respectively.
